As a reminder, the kinetic solubility is the concentration staying in solution when a stock, usually in DMSO, is diluted into the medium.

Values after ≈ are worked out from the molar mass of the structure shown.

For the data set the following is noted: buffer; pH 7.4; 200.0 µM.
For `COc1ccc(C(=O)Nc2cccc(S(=O)(=O)N3CCCC3)c2)cc1S(=O)(=O)N1CCOCC1`, the solubility (kinetic) came out at 5.3 µg/mL (≈ 10.4 µM). In the case of `CCOc1ccc(Nc2nc(N)c([N+](=O)[O-])c(NCc3ccccc3)n2)cc1`, the solubility (kinetic) was below 0.1 µg/mL. `Cc1ccc(C2NC(=S)NC3=C2C(=O)CCC3)cc1` (stereo not drawn) registered a solubility (kinetic) of 9 µg/mL (≈ 33 µM). As for `COc1ccc2oc(=O)c(C(=O)NCc3ccc(C)cc3)cc2c1`, the kinetic solubility is below 0.7 µg/mL.

In the case of `Cc1ccccc1C(=O)N1CCC(C(=O)NC2CCCCC2)CC1`, the solubility (kinetic) came to 44.4 µg/mL (≈ 135 µM). `CC(OC(=O)CSc1ccc(F)cc1)C(=O)NC1(C#N)CCCCC1` (stereo not drawn) yielded a kinetic solubility of 42.2 µg/mL (≈ 116 µM). With `O=C1CCC(=O)N1Cc1c(Cl)cccc1Cl`, the solubility (kinetic) was determined as 35.5 µg/mL (≈ 138 µM). `O=C(OCC(=O)c1ccc[nH]1)c1ccccc1` came in with a kinetic solubility of 32.2 µg/mL (≈ 140 µM).

The compound `Cc1nc(NC(=O)c2ccncc2)sc1C(=O)N(C)C` registered a solubility (kinetic) above 43.6 µg/mL.

On to `O=C(CCCOc1ccc(Cl)cc1Cl)Nc1ccccc1C(=O)O`, for which the solubility (kinetic) is above 55.2 µg/mL. As to `COc1ccc(Cl)cc1N1C(=O)CC(Sc2ccccc2N)C1=O` (stereo not drawn), the kinetic solubility was below 0.4 µg/mL. `CN(Cc1ccccc1)C(=O)COC(=O)c1ccc[nH]c1=O` showed a kinetic solubility above 45 µg/mL.

The compound `COc1ccccc1Cc1nc(-c2cccnc2)no1` came in with a kinetic solubility of 31.9 µg/mL (≈ 119 µM). For the compound `COc1ccc(OC)c(C(C)NC(=O)C(C)Cc2ccccc2)c1` (stereo not drawn), the solubility (kinetic) came to 45.7 µg/mL (≈ 140 µM).

With `CCN(C(=O)c1ccc(Br)o1)C1CCS(=O)(=O)C1` (stereo not drawn), the solubility (kinetic) is above 50.4 µg/mL. With `O=C(Nc1ccc(F)cc1)Nc1ccc2ccccc2n1` the figure was below 0.2 µg/mL. Consider `CN(C(=O)c1cccs1)C1(C)CCS(=O)(=O)C1` (stereo not drawn), for which the kinetic solubility was above 41 µg/mL. In turn, `CCCCC(=O)Nc1ccc(NC(=O)c2cnccn2)cn1` registered a kinetic solubility above 44.9 µg/mL. Compound `Cc1cccc(C(=O)OC(C)CN2CCN(C)CC2)c1.Cl` (stereo not drawn) displayed a kinetic solubility above 46.9 µg/mL. As for `COc1ccc(C2(CNS(=O)(=O)c3ccccc3)CCOCC2)cc1`, the figure is 46.6 µg/mL (≈ 129 µM); as for `Cc1nc2ccc(NC(=O)CSc3ccccc3)cc2s1`, 46 µg/mL (≈ 146 µM); as for `O=C(NCc1ccco1)c1ccc(COc2ccccc2[N+](=O)[O-])o1`, above 51.3 µg/mL.

With `CC(C)(C)NC(=O)/C(=C/c1cccnc1)NC(=O)c1ccco1`, the solubility (kinetic) is above 47 µg/mL.

In turn, `CC(COc1ccccc1)N(CCCl)Cc1ccccc1.Cl` (stereo not drawn) had a kinetic solubility of 45.8 µg/mL. With `CC(=O)Nc1ccc(C(=O)NCCN2CCOCC2)cc1`, the kinetic solubility came to 36 µg/mL (≈ 124 µM). With `COCCNc1ccc(N2C(=O)CCCC2=O)cc1[N+](=O)[O-]` the figure was 45.8 µg/mL (≈ 149 µM); with `c1ccc2c(Cn3ccnc3)cccc2c1`, 30.2 µg/mL (≈ 145 µM); with `O=[N+]([O-])c1ccccc1S(=O)(=O)N1CCCC(C(F)(F)F)C1` (stereo not drawn), 3.1 µg/mL (≈ 9.16 µM). `[O-][n+]1c(/C=C/c2ccccc2)ccc2ccccc21` registered a solubility (kinetic) above 37.1 µg/mL. With `Cc1cccc(C)c1OCc1cc(C(=O)NCC2CC2)no1` the figure was 4.6 µg/mL (≈ 15.3 µM); with `COc1ccc(Cn2c(=O)cc(C)[nH]c2=S)cc1`, 20.2 µg/mL (≈ 77 µM). In turn, `O=C(CCNC(=O)c1ccccc1Cl)Nc1ccccc1N1CCCC1` yielded a kinetic solubility of 48.6 µg/mL (≈ 131 µM). In the case of `COC(=O)c1ccc(NC(=O)Nc2ccccc2C)cc1`, the solubility (kinetic) is 4.3 µg/mL (≈ 15.1 µM). As for `O=C(NCC(=O)N1CCN(Cc2ccccc2)CC1)c1cccs1`, the solubility (kinetic) was above 51.5 µg/mL. As for `Cc1c(Cl)cccc1NC(=O)C1CC2CCC1C2` (stereo not drawn), the figure is 1.5 µg/mL (≈ 5.69 µM); as for `O=C(N/N=C/c1cccs1)c1cccnc1`, above 34.7 µg/mL. As for `O=C(Nc1c(F)cccc1F)C(c1ccccc1)c1ccccc1`, the kinetic solubility is below 0.7 µg/mL. As to `Cn1c(SCC(=O)NC2CCCC2)nc2c(c1=O)SCC2`, the kinetic solubility is above 48.8 µg/mL. As for `Cc1cccnc1N1C(=O)c2ccc(C(=O)O)cc2C1=O`, the kinetic solubility is above 42.3 µg/mL. With `CN(Cc1ccccc1)C(=O)Nc1ccc(Cl)cc1` the figure was 38.5 µg/mL (≈ 140 µM); with `COc1ccc(NC(=O)C2CCCN(C(=O)Nc3ccc(OC)cc3)C2)cc1` (stereo not drawn), 7.5 µg/mL (≈ 19.6 µM); with `Cc1cc(C)cc(Nc2ncnc3nc[nH]c23)c1`, 7.7 µg/mL (≈ 32.2 µM).

Take `COCCNC(=O)CN1CCCCCC1.Cl`: the kinetic solubility was determined as 34.8 µg/mL. In the case of `Cl.N=C1CCCN1c1ccccc1O`, the kinetic solubility was determined as 30.6 µg/mL. `O=C(C[n+]1ccc(/C=N/O)cc1)NCc1ccccc1.[Cl-]` showed a kinetic solubility of 41.3 µg/mL. With `COc1ccc(Nc2nc3ccccc3c(=O)[nH]2)cc1` the figure was 24.4 µg/mL (≈ 91.3 µM); with `CCC(CC)NC(=O)Nc1ccc(C)cc1`, 21.4 µg/mL (≈ 97.1 µM). As for `CC(=O)/C(C#N)=C1\NC(=O)C(Cc2ccc(C)c(Cl)c2)S1` (stereo not drawn), the figure is above 48.1 µg/mL; as for `O=C(Nc1ccc(S(=O)(=O)N2CCCCC2)cc1)c1ccc(Cl)nc1`, 7.6 µg/mL (≈ 20 µM). `COc1ccc(C(=O)NCCCNC(=O)c2ccco2)cc1OC` yielded a solubility (kinetic) above 49.9 µg/mL. Compound `O=C(NCc1ccccc1)c1cccn(Cc2ccccc2)c1=O` yielded a solubility (kinetic) of 45.9 µg/mL (≈ 144 µM).

`COc1ccc(CNC(=S)Nc2ccccc2F)cc1` yielded a kinetic solubility of 34 µg/mL (≈ 117 µM).

Consider `CCOc1ccc(C2=CSC3=NCCN23)cc1`, for which the solubility (kinetic) was 22.9 µg/mL (≈ 93 µM). For `CCCCN(C(=O)CSc1nc2ccccc2s1)c1c(N)n(CCCC)c(=O)[nH]c1=O`, the kinetic solubility stood at 35.6 µg/mL (≈ 77.1 µM).

`O=C1CNC(=O)N1` showed a kinetic solubility above 15 µg/mL. With `Cc1ccccc1OCC(O)CN(CCO)Cc1ccccc1.Cl` (stereo not drawn) the figure was 40.4 µg/mL; with `Cc1ccc(C(=O)OCC(=O)NC2CCS(=O)(=O)C2)c(C)c1` (stereo not drawn), above 48.8 µg/mL; with `O=C(Nc1ccc(Cl)cc1)/C(=C1\CCCN1)[N+](=O)[O-]`, 1 µg/mL (≈ 3.55 µM). With `N#Cc1ccc(C(=O)OCC(=O)N2CCCC2)cc1` the figure was above 38.7 µg/mL; with `CCCCNC(=S)Nc1ccc2[nH]c(=O)[nH]c2c1`, 18.4 µg/mL (≈ 69.6 µM); with `Cc1ccc(NC(=O)c2cc3cccc([N+](=O)[O-])c3[nH]2)cc1`, 2.8 µg/mL (≈ 9.48 µM).

`CC1CCN(CC(O)COC2CC(C)CC(C)(C)C2)CC1.Cl` (stereo not drawn): the solubility (kinetic) worked out at 45.5 µg/mL. `Cc1cccc(Cc2cnc(NC(=O)C3=NCCN3)s2)c1` registered a kinetic solubility of 7 µg/mL (≈ 23.3 µM). As for `O=C(NCc1ccccc1F)c1ccc2c(c1)OCCO2`, the figure is above 43.1 µg/mL; as for `Cn1nnc(NC(=O)c2ccc(Br)o2)n1`, above 40.8 µg/mL; as for `COc1ccc(C2=NOC(C(=O)NCc3cccnc3)C2)cc1OC` (stereo not drawn), above 51.2 µg/mL. `O=C(NC(c1ccccc1)c1ccccc1)N1CCOCC1` registered a kinetic solubility above 44.5 µg/mL. `CC[C@@H]1C(=O)OC[C@@H]1Cc1cncn1C.Cl` gave a solubility (kinetic) above 36.7 µg/mL. Compound `COc1ccc(N2CCOCC2)c(NC(=O)c2cccs2)c1` had a solubility (kinetic) of 47.7 µg/mL (≈ 150 µM). `O=C(COC(=O)c1ccc(O)cc1)Nc1ccc(S(=O)(=O)N2CCCC2)cc1` had a solubility (kinetic) above 60.7 µg/mL. In turn, `CCOc1ccc(CC(=O)Nc2nccs2)cc1` showed a kinetic solubility of 7.7 µg/mL (≈ 29.4 µM).

For `Cc1ccccc1N=Cc1cccc(O)c1O`, the solubility (kinetic) came to 20.9 µg/mL (≈ 92 µM). Take `Cc1ccc(Cc2nc3ccccc3[nH]2)cc1`: the solubility (kinetic) is 31.8 µg/mL (≈ 143 µM). As for `CSc1nc(SC(C)C(=O)O)c2c3c(sc2n1)COC(C)(C)C3` (stereo not drawn), the figure is above 55.6 µg/mL. `CCn1c(O)c(C=NC2CCCC(C)C2C)sc1=S` (stereo not drawn) showed a solubility (kinetic) of 4.3 µg/mL (≈ 14.4 µM).

As to `O=S(=O)(c1cccs1)N1CCN(c2ccc(Cl)cc2)CC1`, the solubility (kinetic) was below 0.4 µg/mL. As for `COCCC(=O)N1CCc2c([nH]c3ccccc23)C1C(C)(C)C` (stereo not drawn), the figure is above 47.2 µg/mL. Compound `COC(=O)C1(C(=O)O)Cc2cc([N+](=O)[O-])ccc2N2CCCC21` (stereo not drawn) had a kinetic solubility of 47.9 µg/mL (≈ 150 µM). As to `Cc1ccccc1CC(=O)Nc1ccc2c(c1)CCC2`, the kinetic solubility was below 0.6 µg/mL.

`Cc1cccc(-c2nnc(SCC(=O)N3CCCC3)o2)c1`: the kinetic solubility was above 45.5 µg/mL. In the case of `CC1CC1C(=O)OCC(=O)Nc1cccc(F)c1` (stereo not drawn), the solubility (kinetic) is above 37.7 µg/mL. Consider `CC(Sc1ncccn1)C(=O)NNC(=O)c1cccc(Cl)c1` (stereo not drawn), for which the kinetic solubility was above 50.5 µg/mL.

Compound `Cc1ccc(S(=O)(=O)N2CCN(C(=O)c3ccco3)CC2)c(C)c1` displayed a kinetic solubility of 49 µg/mL (≈ 141 µM). With `CCOc1cccc(NC(=O)/C(C#N)=C/c2cccnc2)c1` the figure was 31.7 µg/mL (≈ 108 µM).

As to `O=C(O)c1ccccc1N1C(=O)c2cccc3cccc(c23)C1=O`, the kinetic solubility was above 47.6 µg/mL. `CCOc1ccc(C(=O)NCC(=O)NCCOc2ccc(C)cc2)cc1` registered a kinetic solubility of 10.4 µg/mL (≈ 29.2 µM). As to `O=c1[nH]cnc2sc3c(c12)CN(Cc1ccccc1)CC3`, the kinetic solubility came to 21.3 µg/mL (≈ 71.6 µM). Regarding `Cc1cc(S(=O)(=O)c2ccc([N+](=O)[O-])cn2)ccc1Br`, the kinetic solubility stood at 1.7 µg/mL (≈ 4.76 µM). As for `c1ccc(-c2nc(-c3ccc(-c4ccon4)s3)no2)cc1`, the figure is 0.6 µg/mL (≈ 2.03 µM); as for `COc1ccc2c(c1)c(CC(=O)OCC(=O)O)c(C)n2C(=O)c1ccc(Cl)cc1`, above 62.4 µg/mL. On to `CC(C)Cn1c(SCC(=O)O)nnc1-c1cccc(S(=O)(=O)N2CCOCC2)c1`, for which the solubility (kinetic) was above 66.1 µg/mL. As to `CN(C)CCCNc1nc(-c2ccccc2)nc2ccccc12.Cl`, the solubility (kinetic) worked out at 44.1 µg/mL. The compound `CCN(CC(=O)Nc1ccc(NC(C)=O)cc1)C(=O)c1ccc(=O)[nH]c1` yielded a kinetic solubility of 50.4 µg/mL (≈ 141 µM). On to `CCOc1cc(Br)c(C(C)NC(=O)c2cccnc2)cc1OCC` (stereo not drawn), for which the kinetic solubility is above 59 µg/mL. As for `COC(=O)Cn1c2ccccc2c2nc3ccccc3nc21`, the kinetic solubility came to 0.2 µg/mL (≈ 0.687 µM). In turn, `NC(=O)c1ccc[n+]([C@H]2O[C@@H](COP(=O)([O-])OP(=O)(O)OC[C@H]3O[C@@H](n4cnc5c(N)ncnc54)[C@H](O)[C@@H]3O)[C@H](O)[C@@H]2O)c1` returned a kinetic solubility above 99.5 µg/mL.

For `Nc1nc(NCc2ccco2)nc(Nc2ccc(F)cc2)c1[N+](=O)[O-]`, the solubility (kinetic) came to 0.1 µg/mL (≈ 0.29 µM). `Cc1[nH]c2ccccc2c1SCC(=O)Nc1nccs1` yielded a solubility (kinetic) of 4.8 µg/mL (≈ 15.8 µM). `COc1cccc(Nc2nc(C)nc3c2oc2ccccc23)c1`: the solubility (kinetic) worked out at 0.3 µg/mL (≈ 0.983 µM). On to `CC(C)N(Cc1ccccc1)C(=S)Nc1ccc(F)cc1`, for which the kinetic solubility stood at 45.1 µg/mL (≈ 149 µM). As to `CC(=O)NC(c1ccc(C(C)C)cc1)c1c(O)ccc2ccccc12` (stereo not drawn), the solubility (kinetic) is below 0.7 µg/mL.

Consider `O=C(Nc1ccccc1Cl)OCc1cncs1`, for which the kinetic solubility worked out at 35.1 µg/mL (≈ 131 µM). In turn, `CCc1ccc(S(=O)(=O)Nc2ccc(Cl)cn2)cc1` registered a kinetic solubility of 8.3 µg/mL (≈ 28 µM).
